Molecules are shown by their SMILES.

The test system of this assay is HL-60. The experiment in a line: Growth inhibition of human HL60 cells. Format: functional, cell-based.

With `CC(C)=C1Oc2c(ccc(CC(C)O)c2CO)C1=O` (stereo unspecified) [USTUSORANE A], the IC50 was found to be 130 nM.

The term IC50 denotes the concentration needed to halve the response being measured. Read a low IC50 as greater potency in that assay.

(Values after ChEMBL document CHEMBL3585254, “Synthesis and structural characterization of natural benzofuranoids” (J Nat Prod, 2015).)
